Data on ten compounds can be found in publication PMC9918889, “Alkaloids and Styryl lactones from Goniothalamus ridleyi King and Their α-Glucosidase Inhibitory Activity” (Molecules, 2023).

Converted amounts (≈) assume the structure as drawn.

In one series the test system is Plasmodium falciparum. Also on record: method as in PMID 19573585. Particulars: cited from earlier work.
Another series deals with α-glucosidase. Kind of series: colorimetric α-glucosidase inhibitory assay. It counts as biochemical. Particulars: for %Inhibition at 250 µg/mL: sample at 250 µg/mL; for IC50: substrate p-nitrophenyl α-D-glucoside, 37 °C. Here is the method: The previously reported approach was used to perform a colorimetric α-glucosidase assay. Briefly, the tested samples (50 µL) were combined with 50 µL of the α-glucosidase enzyme solution (0.05 U/mL) and preincubated at 37 °C for 5 min. The substrate (50 µL, c 1 mM), p-nitrophenyl α-D-glucoside, was added and incubated at 37 °C for 30 min. Then, 50 µL of Na2CO3 (0.3 M) was added. The absorption of the mixture was measured at 405 nm.

In another series the test system is HCT116. Also on record: method as in PMID 31918304. Conditions: colon cancer cell line HCT116; read-out: IC50, cytotoxicity against HCT116; cited from earlier work.

For the compound `CC(=O)O[C@H]1[C@H]2OC(=O)C=C[C@@H]2O[C@H]1c1ccccc1` [(+)-3-Acetylaltholactone], the “IC50, antiplasmodial activity” value in the series on Plasmodium falciparum was 2.6 µg/mL (≈ 9.48 µM).

As usually defined, the %Inhibition is the change of the read-out against control, counted positive when it falls. One may read the IC50 as the concentration that gives 50% inhibition. As for `O=C1C=CC(=CC=Cc2ccccc2)O1` [Compound 7, 5-(3-phenyl-2-propenylidene)-2(5H)-furanone], in the series with α-glucosidase, the “%Inhibition at 250 µg/mL” value is 98.6% and the IC50 is 1.25 ± 0.4 µM.

(−)-nordicentrine: the “IC50, antiplasmodial activity” value with Plasmodium falciparum is 0.3 µg/mL.

With `O=C1C=C[C@@H](O)[C@@H](/C=C/c2ccccc2)O1` [Compound 9, (−)-5-hydroxygoniothalamin], the “%Inhibition at 250 µg/mL” value with α-glucosidase amounted to 99.8%.

As for `Cn1cc(CO)c2c1C(=O)c1ccccc1C2=O` [Compound 2, 3-hydroxymethyl-1-methyl-1H-benz[f]indole-4,9-dione], the “%Inhibition at 250 µg/mL” value with α-glucosidase was 99.3%.

As to `C[C@H]1O[C@H](O[C@H]2[C@H](O)[C@@H](O)[C@@H](O[C@H]3[C@H](O)[C@@H](O)C(O)O[C@@H]3CO)O[C@@H]2CO)[C@H](O)[C@@H](O)[C@@H]1N[C@H]1C=C(CO)[C@@H](O)[C@H](O)[C@H]1O` (stereo partly shown) [Acarbose, reference compound], the “%Inhibition at 250 µg/mL” value in the series with α-glucosidase came to 88.1%.

Take `Cn1cc(C(=O)O)c2c1C(=O)c1ccccc1C2=O` [Compound 3, goniochelienic acid B]: the “%Inhibition at 250 µg/mL” value in the series on α-glucosidase is on record as 99.5%.

As to `O=C1C=CCC(/C=C\c2ccccc2)O1` (stereo not shown) [(Z)-6-styryl-5,6-dihydro-2-pyranone], the half-inhibitory concentration (IC50) with HCT116 is 22.2 µM.

A word on the melting point: it is the temperature of the solid-liquid transition. `COc1cccc2c1cc1c3c(cc4c(c32)OC2Oc3c(cc5c6c(cc7ccccc7c36)NC5=O)OC2O4)C(=O)N1` (stereo not shown) [Compound 1, Gonioridleylactam] came in with a melting point of 296 to 298 °C. Moreover, in the series with α-glucosidase, the “%Inhibition at 250 µg/mL” value is listed as 99.6% and the IC50 was found to be 138.9 ± 0.9 µM.

On to `C[C@@H]1C2=C(NC(=O)[C@@H]1O)C(=O)c1ccccc1C2=O` [Compound 4, griffithazanone A], for which, in the series on α-glucosidase, the “%Inhibition at 250 µg/mL” value was found to be 98.0%.
